{"source": "patent US20220023302A1", "about": "“PDE9 INHIBITORS FOR TREATING SICKLE CELL DISEASE” (Imara Inc., priority 2019, published 2022)", "key": {"[1]": {"experiment": "Clinical safety and tolerability", "format": "in vivo, human", "description": "In some embodiments, Compound 1, or a pharmaceutically acceptable salt, solvate, or hydrate thereof is administered to a patient, wherein Compound 1, or a pharmaceutically acceptable salt, solvate, or hydrate thereof, is administered once a day with food. […] The incidence and severity of the side effects, such as nausea, emesis and headache, can be reduced when Compound 1, or a pharmaceutically acceptable salt, solvate, or hydrate thereof, is taken with food.\nTherefore, Population A is designed to explore the PD dose response in patients as well as the tolerability of the 200 mg dose level in sickle cell patients who have tolerated the 100 mg dose well."}, "Townes mice": {"tested_on": "Townes mice", "experiment": "Myeloid and neutrophil inflammatory markers in the lungs of Townes mice", "format": "in vivo, mouse", "from_the_text": "(§1) This appears to be accompanied by a Compound 1-mediated reduction in disease specific cell activation including 67% lower levels of myeloid derived myeloperoxidase (MPO) and 26% lower levels of neutrophil derived arginase in the lung (FIG. 1). […] This was quantified by real time monitoring of the green florescent patches in the microchannel, as neutrophils are labeled by a specific Alexa Fluor® 488-conjugated antibody before the perfusion step. […] Under these conditions, adhesion was reduced an average of 54% (p=0.03) (FIG. 2). Mechanistically, not willing to be bound by any theory, Compound 1 may target the stationary adhesion step of neutrophils as it lowered expression levels of key neutrophil integrins including CD11a [reduced 23% (p=0.002)], CD11b [reduced 39% (ns)) and CD18 [reduced 47% (p=0.03)) (FIG. 3)."}, "[2]": {"tested_on": "CD11a, CD11b and CD18 integrins on SCD patient neutrophils", "experiment": "Integrin expression on SCD patient neutrophils", "format": "cell-based, human", "from_the_text": "as §1"}, "[3]": {"experiment": "Stability of Compound 1 in solution as a function of pH", "format": "physicochemical", "from_the_text": "The pH of the solution affects the compound stability and solubility. […] In some embodiments, pharmaceutical composition has a pH from about 3.0 to about 7.0. In some embodiments, the pharmaceutical composition has a pH from about 3.0 to about 6.0, or from about 5.5 to about 6.5. In some embodiments, pH of the pharmaceutical composition is about 5.5, about 5.6, about 5.7, about 5.8, about 5.9, about 6.0, about 6.1, about 6.2, about 6.3, about 6.4, or about 6.5. In some embodiments, pH of the pharmaceutical composition is about 5.5. In some embodiments, pH of the pharmaceutical composition is about 6.0.\nThere is no obvious excipient that can mask its taste. Another major challenge was to optimize the excipients quantity. […] In some embodiments, a pharmaceutical composition of pH above 5.5 comprising Compound 1 is provided. […] Extensive formulation development and manufacturing process studies were carried out. Other challenges are the excipient compatibility and stability of the API in solution."}, "[4]": {"tested_on": "Erythroid cell lines (K562, UT-7)", "experiment": "In vitro studies in erythroid cell lines vs. HU", "format": "cell-based", "from_the_text": "The effects of Compound 1 is compared with HU in in vitro studies in erythroid cell lines (K562 and UT-7)."}, "Townes SCD model": {"tested_on": "Townes SCD model", "experiment": "28 day Townes SCD model, Compound 1 vs. HU (RBC/WBC)", "format": "in vivo, mouse", "description": "In one study, Compound 1 and therapeutic doses of HU (25 mg/kg and 50 mg/kg) were tested side-by-side in the 28 day Townes SCD model (oral daily). […] MPO is a monocyte inflammatory marker. Plasma nitrate is improved nitrate levels. Lower levels of plasma nitrate may contribute to hemolysis in SCD patients."}, "Townes mouse model": {"tested_on": "Townes mouse model", "experiment": "Plasma sE-Sel in the Townes mouse model", "format": "in vivo", "settings": "Townes mice treated with Compound 1", "description": "Endothelial E-selectin (E-Sel) slows leukocyte rolling, which is followed by stationary adhesion and transmigration of activated leukocytes. Plasma levels of sE-Sel, produced by the enzymatic cleavage of the extracellular domains of E-Sel, are increased in SCD patients and this may be mediated by its interaction with leukocytes. In the Townes mouse model, plasma sE-Sel is increased 144% ([…]) over levels seen in control mice ([…])."}, "SCD patient neutrophils": {"tested_on": "SCD patient neutrophils", "experiment": "In vitro adhesion assay mimicking blood flow (microchannels lined with activated HMEC-1)", "format": "cell-based, human", "from_the_text": "as §1"}, "Solubility in water": {"experiment": "Solubility in water", "format": "physicochemical", "description": "Per taste testing results, bitterness could be detected for all these samples. […] At this level of solubility, masking the taste of Compound 1 in an oral solution is challenging. Even high level of sucralose was evaluated and taste of the oral solution remained bitter. […] Furthermore, strawberry flavor was chosen, because patients like its sweet taste and it has a good solubility in water. Orange juice or lime juice may be used to dilute the oral solution and to mask the bitter taste before administration."}, "[5]": {"experiment": "Nonclinical data on concomitant administration of HU with Compound 1", "format": "in vivo", "description": "Results from Population B are intended to provide information on Compound 1 when administered concomitantly with HU, both of which increase HbF levels through alternative biochemical pathways that increase intracellular cGMP. Because there are no clinical data to support administration of Compound 1 concomitantly with HU, patients in Population B initiate Compound 1 dosing at the low dose (30 mg or 50 mg) used in Population A and only escalate to the 100 mg dose if the 50 mg dose has been safe and tolerated for 4 weeks."}, "SCD models": {"tested_on": "SCD models", "experiment": "Circulating levels of PMNs in SCD models", "format": "in vivo, murine", "from_the_text": "as §1, with “Recently several drugs targeting white cell binding to endothelial cells, have been advancing in clinical studies in patients. Compound 1 is able to increase expression of fetal hemoglobin in patient derived cells and murine models of SCD and reduce vessel occlusion in SCD murine models. In this Example, the ability of Compound 1 to reduce the adhesive properties of neutrophils from SCD patients and reduce sE-Selectin (sE-Sel) and markers of PMN activation in murine SCD models was studied. […] This appears” for “This appears”"}, "[6]": {"tested_on": "SCD patient derived cell lines", "experiment": "Study in SCD patient derived cell lines", "format": "cell-based, human"}, "C57B1/6J": {"tested_on": "C57B1/6J", "experiment": "In-vivo cognition: C57B1/6J"}, "[7]": {"tested_on": "In-vivo SCD: vaso occlusion", "experiment": "In-vivo SCD: vaso occlusion (WBC)"}}, "note": "“Also recorded” adds a separate entry of the source."}
{"smiles": "C[C@@H]1CN(Cc2ncccn2)C[C@H]1c1cn2c(C3CCOCC3)ncc2c(=O)[nH]1", "note": "[Compound 1, 6-[(3S,4S)-4-methyl-1-(pyrimidin-2-ylmethyl)pyrrolidin-3-yl]-3-tetrahydropyran-4-yl-7H-imidazo[1,5-a]pyrazin-8-one]", "values": [{"measurement": "effect of food on adverse event profile (nausea, emesis, headache)", "setting": "[1]; once a day with food", "value": "dramatically reduce the adverse event profile"}, {"measurement": "safety and tolerability", "setting": "[1]; once daily doses of 30, 50, 100, and 200 mg, nonclinical and healthy volunteer clinical data", "value": "safe and well tolerated"}, {"measurement": "myeloid and neutrophil inflammatory markers in the lungs", "setting": "Townes mice; Townes mice, FIG. 1 legend", "value": "reduces"}, {"measurement": "lower levels of myeloid derived myeloperoxidase (MPO) in the lung", "setting": "Townes mice; lung, FIG. 1", "value": 67, "unit": "%"}, {"measurement": "lower levels of neutrophil derived arginase in the lung", "setting": "Townes mice; lung, FIG. 1", "value": 26, "unit": "%"}, {"measurement": "expression of CD11a, CD11b and CD18 integrins", "setting": "[2]; FIG. 3 legend", "value": "reduces expression"}, {"measurement": "CD11b expression reduced", "setting": "[2]; ns, FIG. 3", "value": 39, "unit": "%"}, {"measurement": "CD11a expression reduced", "setting": "[2]; p=0.002, FIG. 3", "value": 23, "unit": "%"}, {"measurement": "CD18 expression reduced", "setting": "[2]; p=0.03, FIG. 3", "value": 47, "unit": "%"}, {"measurement": "stability at a lower pH", "setting": "[3]", "value": "unstable"}, {"measurement": "cGMP levels vs. HU", "setting": "[4]", "value": "increased cGMP levels compared with HU; also recorded: Increased cGMP levels vs. HU;"}, {"measurement": "induction of HbF (RNA, protein, etc.)", "setting": "[4]", "value": "induction of HbF (RNA, protein, etc.)"}, {"measurement": "key measures of RBC pathology (sickled RBCs; unconjugated bilirubin; % HbF cells; LDH activity) vs. HU", "setting": "Townes SCD model; 28 day, oral daily, Compound 1 30 mg/kg, HU 25 and 50 mg/kg, FIG. 4", "value": "outperforms HU in a statistically significant manner"}, {"measurement": "measures of WBC pathology vs. HU", "setting": "Townes SCD model; 28 day, oral daily, Compound 1 30 mg/kg, HU 25 and 50 mg/kg, FIG. 5", "value": "outperforms HU in a statistically significant manner"}, {"measurement": "RBC/WBC parameters vs. HU", "setting": "Townes SCD model; Townes", "value": "Statistically better results than HU"}, {"measurement": "plasma sE-Sel levels", "setting": "Townes mouse model; control mice 57, Townes mice 139", "value": 92, "unit": "ng/mL"}, {"measurement": "plasma sE-Sel elevation over control mice", "setting": "Townes mouse model; untreated Townes 144%", "value": 61, "unit": "%"}, {"measurement": "reduction of neutrophil adhesion to activated HMEC-1", "setting": "SCD patient neutrophils; 30 min incubation with 30 μM, average, p=0.03, FIG. 2", "value": 54, "unit": "%"}, {"measurement": "adhesion of SCD patient neutrophils to endothelial cells", "setting": "SCD patient neutrophils; added to whole blood samples prior to perfusion", "value": "reduced adhesions significantly and in a dose dependent manner; also recorded: reduces adhesion"}, {"measurement": "solubility", "setting": "Solubility in water", "value": "~1000", "unit": "mg/mL"}, {"measurement": "increase of Compound 1 exposure by concomitant HU", "setting": "[5]", "value": "do not suggest"}, {"measurement": "circulating levels of PMNs", "setting": "SCD models", "value": "reduced"}, {"measurement": "F-cells %", "setting": "[6]", "value": "F-cells % increase"}, {"measurement": "HbF", "setting": "[6]", "value": "increases in HbF"}, {"measurement": "CNS activity", "setting": "C57B1/6J", "value": "No CNS activity"}, {"measurement": "vaso occlusion (WBC) vs. HU", "setting": "[7]", "value": "Better results vs. HU; combo"}]}
